{"source": "patent US6342537B1", "about": "“Gel for treatment of skin diseases and for disinfection of the skin” (priority 1994, dated 2002)", "key": {"[1]": {"tested_on": "herpes labialis eruptions", "conditions": "in vivo", "from_the_text": "23.4—Application of Gelled Alcohol\nIn this example some of the gelled compositions contained 1.6% by weight HPC and others contained 1.6% by weight EHEC."}, "[2]": {"tested_on": "herpes labialis eruptions", "conditions": "glass container; for symptom relief: two early phases"}, "[3]": {"tested_on": "herpes labialis eruptions", "assay": "Herpes labialis eruptions, prolonged contact with impregnated cotton (Example 23.2)", "type": "in vivo, human", "conditions": "for symptom relief: intensive depot treatment"}, "[4]": {"tested_on": "recurrent herpes genitalia, herpes febrilis (labialis)", "conditions": "nonimmunocompromised patients; cited from earlier work"}, "[5]": {"tested_on": "herpes simplex virus (HSV) type 1", "assay": "Inactivation of herpes simplex virus in infected MRC-5 cells by alcohols (Example 25)", "type": "cell-based", "conditions": "for HSV - CPE after 44 hours with the detecting cell-layer: duplicate wells", "description": "Ethanol is an accepted disinfectant for viruses with an envelope. The purpose of this study was to measure the inactivating effect of “short-chained alcohols” on virus-infected cells.\nFour 96 well plates with confluent MRC-5 cell were infected with herpes simplex virus (HSV) type 1. After appearance of 50% cytopathic effect (CPE), the culture medium was removed, and rows of 12 wells were treated with 25 μl/well of the alcohols or buffer after the following scheme: The first row with undiluted, and the following with 96%, 90%, 80%, 70%, 60% and 50% alcohol, respectively—all dilutions performed in buffer (PBS). To the last row was added buffer. After 2, 4, 8, 16 and 32 min, respectively, two wells in each row were emptied and the cells overlaid with PBS. The plate was then frozen at —80° C. Afterwards the wells were seeded with a detection layer of MRC-5 cells and the plates were placed at 37° C. for 44 hours. Virus surviving the treatment with alcohol was detected by the appearance of CPE, characteristic for HSV in the detection monolayer."}}, "note": "Several values for one entry are separate records, joined by “and”; a condition that tells them apart may be missing. Identical values can stand only once. Like-named read-outs stand apart in the source and are kept apart here."}
{"molecule": "CCO", "note": "[Ethanol 90%]", "values": [{"measurement": "pain reaction on application in the ulceration phase", "setting": "[1]", "value": "less pain or shorter duration"}]}
{"molecule": "CCO", "note": "[Ethanol 95%]", "values": [{"measurement": "pain reaction on application in the ulceration phase", "setting": "[1]", "value": "slight pain of short duration"}, {"measurement": "eruption abortive effect", "setting": "[2]", "value": "clearly observed"}, {"measurement": "eruption shortening effect", "setting": "[2]", "value": "likewise observed"}, {"measurement": "symptom relief", "setting": "[2]", "value": "very strong symptom relief"}, {"measurement": "symptom relief", "setting": "[3]", "value": "palliative effect on symptom relief"}]}
{"molecule": "CCO", "note": "[Ethanol 99%]", "values": [{"measurement": "pain reaction on application in the ulceration phase", "setting": "[1]", "value": "slight pain of short duration"}, {"measurement": "eruption abortive effect", "setting": "[2]", "value": "clearly observed"}, {"measurement": "eruption shortening effect", "setting": "[2]", "value": "likewise observed"}, {"measurement": "symptom relief", "setting": "[2]", "value": "very strong symptom relief"}, {"measurement": "abortive effect", "setting": "[3]; early phase and vesicular phase", "value": "some abortive effect"}, {"measurement": "symptom relief", "setting": "[3]", "value": "palliative effect on symptom relief"}]}
{"molecule": "Nc1nc2c(ncn2COCCO)c(=O)[nH]1", "note": "[Topical acyclovir, acyclovir]", "values": [{"measurement": "effectiveness in recurrent herpes genitalia / labialis", "setting": "[4]", "value": "not effective"}]}
{"molecule": "Butanol", "values": [{"measurement": "HSV - CPE after 44 hours with the detecting cell-layer", "setting": "[5]; 50% alcohol in PBS, 2 min", "value": "0 and 2"}, {"measurement": "HSV - CPE after 44 hours with the detecting cell-layer", "setting": "[5]; 50% alcohol in PBS, 4 min", "value": 2}, {"measurement": "HSV - CPE after 44 hours with the detecting cell-layer", "setting": "[5]; 50% alcohol in PBS, 8 min", "value": 2}, {"measurement": "HSV - CPE after 44 hours with the detecting cell-layer", "setting": "[5]; 50% alcohol in PBS, 16 min", "value": 0}, {"measurement": "HSV - CPE after 44 hours with the detecting cell-layer", "setting": "[5]; 50% alcohol in PBS, 32 min", "value": "1 and 0"}, {"measurement": "HSV - CPE after 44 hours with the detecting cell-layer", "setting": "[5]; 60% alcohol in PBS, 2 min", "value": "0 and 2"}, {"measurement": "HSV - CPE after 44 hours with the detecting cell-layer", "setting": "[5]; 60% alcohol in PBS, 4 min", "value": 2}, {"measurement": "HSV - CPE after 44 hours with the detecting cell-layer", "setting": "[5]; 60% alcohol in PBS, 8 min", "value": "2 and 0"}, {"measurement": "HSV - CPE after 44 hours with the detecting cell-layer", "setting": "[5]; 60% alcohol in PBS, 16 min", "value": 0}, {"measurement": "HSV - CPE after 44 hours with the detecting cell-layer", "setting": "[5]; 60% alcohol in PBS, 32 min", "value": "1 and 0"}, {"measurement": "HSV - CPE after 44 hours with the detecting cell-layer", "setting": "[5]; 70% alcohol in PBS, 2 min", "value": 0}, {"measurement": "HSV - CPE after 44 hours with the detecting cell-layer", "setting": "[5]; 70% alcohol in PBS, 4 min", "value": "0 and 1"}, {"measurement": "HSV - CPE after 44 hours with the detecting cell-layer", "setting": "[5]; 70% alcohol in PBS, 8 min", "value": "1 and 0"}, {"measurement": "HSV - CPE after 44 hours with the detecting cell-layer", "setting": "[5]; 70% alcohol in PBS, 16 min", "value": "0 and 1"}, {"measurement": "HSV - CPE after 44 hours with the detecting cell-layer", "setting": "[5]; 70% alcohol in PBS, 32 min", "value": 1}, {"measurement": "HSV - CPE after 44 hours with the detecting cell-layer", "setting": "[5]; 80% alcohol in PBS, 2 min", "value": 0}, {"measurement": "HSV - CPE after 44 hours with the detecting cell-layer", "setting": "[5]; 80% alcohol in PBS, 4 min", "value": "0 and 1"}, {"measurement": "HSV - CPE after 44 hours with the detecting cell-layer", "setting": "[5]; 80% alcohol in PBS, 8 min", "value": "1 and 0"}, {"measurement": "HSV - CPE after 44 hours with the detecting cell-layer", "setting": "[5]; 80% alcohol in PBS, 16 min", "value": 0}, {"measurement": "HSV - CPE after 44 hours with the detecting cell-layer", "setting": "[5]; 80% alcohol in PBS, 32 min", "value": "1 and 0"}, {"measurement": "HSV - CPE after 44 hours with the detecting cell-layer", "setting": "[5]; 90% alcohol in PBS, 2 min", "value": 0}, {"measurement": "HSV - CPE after 44 hours with the detecting cell-layer", "setting": "[5]; 90% alcohol in PBS, 4 min", "value": "0 and 1"}, {"measurement": "HSV - CPE after 44 hours with the detecting cell-layer", "setting": "[5]; 90% alcohol in PBS, 8 min", "value": 0}, {"measurement": "HSV - CPE after 44 hours with the detecting cell-layer", "setting": "[5]; 90% alcohol in PBS, 16 min", "value": "1 and 0"}, {"measurement": "HSV - CPE after 44 hours with the detecting cell-layer", "setting": "[5]; 90% alcohol in PBS, 32 min", "value": "0 and 3"}, {"measurement": "HSV - CPE after 44 hours with the detecting cell-layer", "setting": "[5]; 96% alcohol in PBS, 2 min", "value": 0}, {"measurement": "HSV - CPE after 44 hours with the detecting cell-layer", "setting": "[5]; 96% alcohol in PBS, 4 min", "value": 0}, {"measurement": "HSV - CPE after 44 hours with the detecting cell-layer", "setting": "[5]; 96% alcohol in PBS, 8 min", "value": "0 and 2"}, {"measurement": "HSV - CPE after 44 hours with the detecting cell-layer", "setting": "[5]; 96% alcohol in PBS, 16 min", "value": 0}, {"measurement": "HSV - CPE after 44 hours with the detecting cell-layer", "setting": "[5]; 96% alcohol in PBS, 32 min", "value": 0}, {"measurement": "inactivation of herpes simplex virus (in words)", "setting": "[5]; HSV type 1 infected MRC-5 cells", "value": "able to inactivate herpes simplex virus even intracellular virus"}, {"measurement": "HSV - CPE after 44 hours with the detecting cell-layer", "setting": "[5]; alcohol undiluted, 2 min with alcohol", "value": 0}, {"measurement": "HSV - CPE after 44 hours with the detecting cell-layer", "setting": "[5]; alcohol undiluted, 4 min", "value": 0}, {"measurement": "HSV - CPE after 44 hours with the detecting cell-layer", "setting": "[5]; alcohol undiluted, 8 min", "value": 0}, {"measurement": "HSV - CPE after 44 hours with the detecting cell-layer", "setting": "[5]; alcohol undiluted, 16 min", "value": 0}, {"measurement": "HSV - CPE after 44 hours with the detecting cell-layer", "setting": "[5]; alcohol undiluted, 32 min", "value": 0}]}
